These results are taken from patent US20260335279A1, “METHODS OF TREATING ISCHEMIA-REPERFUSION INJURIES” (University of Cincinnati, priority 2022, published 2026).

For one assay, the system named is KLF5 promoter. The note with it: colorectal cancer cell lines; Bialkowska 2011; cited from earlier work.
Assay [1] has as its system KLF5. The note with it: colorectal cancer cell lines; Bialkowska 2011; cited from earlier work.
For assay [2], the system named is KLF5. As to conditions: cited from earlier work.
The subject of a further assay is NOX4. As to conditions: cited from earlier work.
The subject of assay [3] is reactive oxygen species in myocardium. Briefly: DHE staining of myocardium (superoxide detection, oxidative stress) after I/R. The class given is in vivo, mouse (C57BL/6). As to conditions: 2 h reperfusion; apocynin 5 mg/kg/12 h or GLX351322 3.8 mg/kg/12 h, intraperitoneal, at early reperfusion. As to the method:
The myocardial ischemia/reperfusion surgical protocol was applied as follows. Mice were anesthetized with 2% isoflurane inhalation until anesthesia was achieved. The animals' body temperature was maintained at 37 °C throughout the surgical procedure using a heating pad. A tracheal tube was placed via tracheal intubation and the respiration rate was set at 150 strokes/min with a tidal volume of 200 μL, using Minivent ventilator for mice (Model 845, Harvard Apparatus). A 1.2 cm incision was made over the left chest. After retraction of the pectoral major and minor muscles, the fourth intercostal space was exposed. […] The left anterior descending coronary artery (LAD) was then located, sutured, and ligated at a site 3-4 mm distal to the origin of the artery under the left atrium using a 6-0 silk suture. The heart was allowed to stabilize for 15 min and right after, ischemia was induced by tightening the suture against a small piece of polyethylene tube. At the end of the 30-minute ischemia period, the ligature was released for the induction of reperfusion, and then the manual evacuation of air and closure of muscle and skin were performed. The mouse was then monitored during the recovery period, which was generally completed within 3 to 5 minutes. […]
Live myocardium was isolated from mice at the time of euthanasia and stained with 20 μM dihydroethidium (DHE) for 30 min at room temperature. […] Individual nuclei were measured within each visual field using ImageJ software, and visual fields were averaged to measure mean fluorescence intensity for each mouse.
In order to unravel the mechanisms of KLF5-mediated cardiotoxicity, oxidative stress levels were evaluated at early reperfusion. […] Given the fact that inflammation and diapedesis of immune cells are important hallmarks of the post-ischemia-reperfusion response, the mRNA levels of IL-1α, IL-1β, IL-6, IL-10, and TNFα in the ischemic myocardium upon ML264 treatment were evaluated at 2 hours of reperfusion (FIGS. 51-5M) and 24 hours of reperfusion (FIGS. 5N-5Q). […]

Assay [4] concerns myocardial ischemia-reperfusion injury in mice. Put plainly: Infarct size evaluation upon Evans Blue/TTC staining after myocardial I/R. It is filed as in vivo, mouse (C57BL/6). On the procedure: The myocardial ischemia/reperfusion surgical protocol was applied as follows. Mice were anesthetized with 2% isoflurane inhalation until anesthesia was achieved. The animals' body temperature was maintained at 37 °C throughout the surgical procedure using a heating pad. A tracheal tube was placed via tracheal intubation and the respiration rate was set at 150 strokes/min with a tidal volume of 200 μL, using Minivent ventilator for mice (Model 845, Harvard Apparatus). A 1.2 cm incision was made over the left chest. After retraction of the pectoral major and minor muscles, the fourth intercostal space was exposed. […] The left anterior descending coronary artery (LAD) was then located, sutured, and ligated at a site 3-4 mm distal to the origin of the artery under the left atrium using a 6-0 silk suture. The heart was allowed to stabilize for 15 min and right after, ischemia was induced by tightening the suture against a small piece of polyethylene tube. At the end of the 30-minute ischemia period, the ligature was released for the induction of reperfusion, and then the manual evacuation of air and closure of muscle and skin were performed. The mouse was then monitored during the recovery period, which was generally completed within 3 to 5 minutes. Sustain-released buprenorphine (BupSR, 0.5 mg/kg body weight) was provided by subcutaneous injection. Mice were then left to recover until the end of the reperfusion (2 hours, 12 hours, 24 hours, or 4 weeks). The sham group underwent the same surgical procedure except that the LAD was not occluded.
Double staining of the heart with Evans Blue dye and Triphenyl-Tetrazolium Chloride (TTC) solution was employed for infarct size measurements. Mice were anesthetized upon 3% isoflurane inhalation. The thorax was cut and opened, and hearts were gently excised. Then, the aorta was cannulated and perfused with 5 mL of normal saline. The suture was re-tightened and Evans Blue solution (2.5% in WFI) was slowly infused through the aorta, to differentiate the ischemic part of the myocardium from the non-occluded, normally perfused area. The hearts were sliced into 1-2 mm sections immediately following. The heart slices were incubated with TTC solution (1% in PBS, pH=7.4) at 37 °C for 20 min. In this way, the necrotic area is delimited as a white area, while the viable tissue is stained red. […] The overall size of each slice (All/A), the area-at-risk (R), and the infarct area (I) were determined in a blinded manner for each slice using ImageJ software, and the percentages of Area at Risk (R/A) % and I/R % were calculated. […]
Administration of these two compounds was performed 5 minutes before the reopening of the coronary artery and infarct size was assessed upon 30 minutes of ischemia followed by 24 hours of reperfusion therapy.

[5] abbreviates: apocynin 5 mg/kg/12 h or GLX351322 3.8 mg/kg/12 h, intraperitoneal, at early reperfusion, vs vehicle.

As for `CC(C)(C)c1cc(C=C(C#N)C#N)cc(C(C)(C)C)c1O` [AG17], the KLF5 promoter activity entry in the assay on KLF5 promoter is listed as “reduce”. Besides, the KLF5 protein level entry with KLF5 [1] was “reduce”.

In the case of `CC(C)(C)c1cc(/C=C(\C#N)C(N)=S)cc(C(C)(C)C)c1O` [AG879], the “inhibition of KLF5” value in the assay on KLF5 [2] was “inhibit”.

For the compound `CCOC(=O)c1c(NC(=O)CN2CCN(C(=O)c3ccco3)CC2)sc2c1CCC2` [GLX-351322], the “hydrogen peroxide production from NOX4-overexpressing cells” value in the assay on NOX4 was “inhibits”. The “oxidative stress (DHE staining)” value in assay [3] is listed as “significant suppression”. For the same compound, the infarct size result in assay [4] (setting [5]) is listed as “significant reduction”.

On to `CC(C)(C)c1ccc(S(=O)(=O)NCc2ccc(C(=O)Nc3cccnc3)cc2)cc1` [STF-31], for which the infarct size result in assay [4] (GLUT inhibitors 5 min before reopening of coronary artery, 30 min ischemia, 24 h reperfusion) was “not by STF-31 treatment”.

Take `COc1cc(C(C)=O)ccc1O` [apocynin, acetovanillone]: the “oxidative stress (DHE staining)” value in assay [3] is “significant suppression”. Besides, the infarct size result in assay [4] (setting [5]) is “significant reduction”.
